Tests used:
[1] = tested on: measles edmonston A virus; test: effect on viruses, measles edmonston A; assay type: cell-based; settings: concentrations ≤100 ug/ml
[2] = tested on: T-cells isolated from mouse thymus; test: T-lymphocyte proliferation + Con A; assay type: cell-based
Protocol: Procedure: T-cells were isolated from mouse thymus using conventional procedures, and suspended in DMEM. 5×10^6 cells/ml are incubated overnight at 37° C. in the presence of 3 ug/ml Con A to assess stimulation (positive score, related to 10 U/ml rat interleukin-2) or suppression (negative score, related to control) of cell proliferation. Test substance was evaluated under these conditions at 10, 1, 0.1 and 0.01 uM. After overnight incubation, 2 uCi [^3 H] thymidine is added to each well. Cells were harvested after an additional 48 hour incubation, and thymidine incorporation assessed by liquid scintillation counting.

rat platelet rich plasma = test: collagen induced platelet aggregation; assay type: cell-based; settings: 0.1 mg/ml
Protocol: Collagen induced platelet aggregation in rat platelet rich plasma was not affected by rhamnolipid (II) at 0.1 mg/ml.

[3] = tested on: T-cells isolated from mouse thymus; test: T-lymphocyte proliferation; assay type: cell-based
Protocol: Procedure: T-cells were isolated from mouse thymus using conventional procedures, and suspended in DMEM. 5×10^6 cells/ml were incubated overnight at 37° C. to assess stimulation (positive score, related to 3 ug/ml Concanavalin A) or suppression (negative score, related to blank control) of cell proliferation. Test substance was evaluated under these conditions at 10, 1, 0.1, 0.01, 0,001 uM. After overnight incubation, 2 uCi [^3 H] thymidine was added to each well. Cells were harvested after an additional 48 hour incubation, and thymidine incorporation assessed by liquid scintillation counting.

patients = settings: human, in vivo
From the text: Blood samples for lab tests were taken from all twelve patients on the first and last day of treatment.

Candida albicans = test: immunorestoration: immunosuppression with cyclophosphamide and infection with Candida albicans; assay type: in vivo, mouse (ICR, female); settings: for Survivor No.: n = 10
From the text: […] One day after the last immunosuppressant dose, the mice were challenged with a suspension of C. albicans sufficient to result in 90 to 100 percent mortality within 10 days in the vehicle treated control group. A greater than 30 percent survival for any drug treated group is considered significant, and possibly a result of immunorestorant activity.

Pseudomonas aeruginosa = test: minimum inhibitory concentration, Pseudomonas aeruginosa; assay type: cell-based; settings: in tested medium
From the text: (§1) The Minimum inhibitory concentration (MIC) of Rhamnolipid II for Candida albicans, Escherichia coli, Staphylococcus aureus and Pseudomonas aeruginosa was >0.5% in tested medium.

[4] = tested on: vesicular stomatitis virus; assay type: cell-based; settings: concentrations ≤100 ug/ml
Escherichia coli = test: minimum inhibitory concentration, Escherichia coli; assay type: cell-based; settings: in tested medium
From the text: as §1

[5] = tested on: oxazolone-induced delayed type hypersensitivity; test: immunosuppression (cellular): oxazolone-induced delayed type hypersensitivity; assay type: in vivo, mouse (ICR, female); settings: for Swelling (R -L) / ear thickness, Left Ear (No Oxa.) / ear thickness, Right Ear (24 hrs Oxa.): X +/- SEM
Protocol: The shaved abdominal surface of groups of 5 mice were sensitized by application of 0.1 ml of 5% oxazolone. The test substance was administered i.p after 1 hour and then daily for 5 consecutive doses. After an additional 4 days, the animals were challenged by application of 25 ul of 5% oxazolone to the right ear. Twenty-four hours later, ear thickness was measured with a Dyer Model micrometer gauge.
A 50 percent or greater decrease in drug-treated versus control animals is considered significant immunosuppressant activity.

alpha-amylase = test: enzyme inhibition, alpha-amylase; assay type: biochemical
Protocol: (§2) Rhamnolipid (II) was tested in vitro against a wide array of enzymes.
(§3) The following enzymes were inhibited at the various rhamnolipid concentrations indicated:
(§4) All enzyme assays were done spectrophotometrically by computer linked automatic microplate reader (Labsystem Multiskan) and Diode Array spectrophotometer (Perkin Elmer).

blood count in mouse = settings: in vivo
From the text: Activity of Di-rhamnolipid on Blood Count in Mouse
Blood count after application of di-rhamnolipid

CHO cells = assay type: cell-based
Protocol: After 16h incubation of CHO cells with rhamnolipid, the number of micronuclei inside certain binuclear cells increased up to 4.

acetylcholinesterase = test: enzyme inhibition, acetylcholinesterase; assay type: biochemical
Protocol: as §2, §3, §4

[6] = IP 0.1 × 3 mg/kg + cyclophosphamide
[7] = IP 1 × 3 mg/kg + cyclophosphamide
[8] = IP 10 × 3 mg/kg + cyclophosphamide
[9] = IP 100 × 3 mg/kg + cyclophosphamide

CCCCCCCC(CC(=O)O)OC(=O)CC(CCCCCCC)O[C@@H]1O[C@@H](C)[C@H](O)[C@@H](O)[C@H]1O[C@@H]1O[C@@H](C)[C@H](O)[C@@H](O)[C@H]1O (stereo partly drawn) [Rhamnolipid (II), (alpha-L-rhamnopyranosyl-(1,2)alpha-L-rhamnopyranosyl)-3-hydroxydecanoyl-3-hydroxydecanoic acid]
antiviral activity [1]: no activity
T-cell proliferation ([2]; 10 uM, with Con A): inhibited
in vitro T cell immunosuppression activity ([2]; 10 uM, with ConA): T cell immunosuppression activity
activation at 0.001 µM ([2]; Mus musculus, T-cell, read-out: % Stimulation (+)/Suppression (-)): 4%
activation at 0.01 µM ([2]; Mus musculus, T-cell, 0.01 uM, ConA, 0.5% DMSO, read-out: % Stimulation (+)/Suppression (-)): 7%
activation at 0.1 µM ([2]; Mus musculus, T-cell, 0.1 uM, ConA, 0.5% DMSO, read-out: % Stimulation (+)/Suppression (-)): 7%
activation at 1 µM ([2]; Mus musculus, T-cell, 1 uM, ConA, 0.5% DMSO, read-out: % Stimulation (+)/Suppression (-)): 3%
activation at 10 µM ([2]; Mus musculus, T-cell, 10 uM, ConA, 0.5% DMSO, read-out: % Stimulation (+)/Suppression (-)): -43%
collagen induced platelet aggregation (rat platelet rich plasma): not affected
T-cell proliferation ([3]; 10 uM, without Con A): inhibited
in vitro T cell immunosuppression activity ([3]; 10 uM, without ConA): T cell immunosuppression activity
activation at 0.001 µM ([3]; Mus musculus, T-cell, 0.001 uM, 0.5% DMSO, read-out: % Stimulation (+)/Suppression (-)): -2%
activation at 0.01 µM ([3]; Mus musculus, T-cell, 0.01 uM, 0.5% DMSO, read-out: % Stimulation (+)/Suppression (-)): 0%
activation at 0.1 µM ([3]; Mus musculus, T-cell, 0.1 uM, 0.5% DMSO, read-out: % Stimulation (+)/Suppression (-)): 1%
activation at 1 µM ([3]; Mus musculus, T-cell, 1 uM, 0.5% DMSO, read-out: % Stimulation (+)/Suppression (-)): -3%
activation at 10 µM ([3]; Mus musculus, T-cell, 10 uM, 0.5% DMSO, read-out: % Stimulation (+)/Suppression (-)): -24%
lab tests of blood samples (patients): no altered results of the tests were observed
Death, days post-inoculum 0-1 (Candida albicans; [6]): 2 #/10 Mice
Death, days post-inoculum 2-3 (Candida albicans; [6]): 1 #/10 Mice
Death, days post-inoculum 4-6 (Candida albicans; [6]): 1 #/10 Mice
Death, days post-inoculum 7-9 (Candida albicans; [6]): 2 #/10 Mice
Response Inc. % (Candida albicans; [6]): 20%
Survivor No. (Candida albicans; [6]): 4
Death, days post-inoculum 0-1 (Candida albicans; [7]): 2 #/10 Mice
Death, days post-inoculum 2-3 (Candida albicans; [7]): 2 #/10 Mice
Death, days post-inoculum 4-6 (Candida albicans; [7]): 1 #/10 Mice
Death, days post-inoculum 7-9 (Candida albicans; [7]): 1 #/10 Mice
Response Inc. % (Candida albicans; [7]): 20%
Survivor No. (Candida albicans; [7]): 4
Death, days post-inoculum 0-1 (Candida albicans; [8]): 2 #/10 Mice
Death, days post-inoculum 2-3 (Candida albicans; [8]): 1 #/10 Mice
Death, days post-inoculum 4-6 (Candida albicans; [8]): 1 #/10 Mice
Death, days post-inoculum 7-9 (Candida albicans; [8]): 0 #/10 Mice
Response Inc. % (Candida albicans; [8]): 40%
Survivor No. (Candida albicans; [8]): 6
Death, days post-inoculum 0-1 (Candida albicans; [9]): 1 #/10 Mice
Death, days post-inoculum 2-3 (Candida albicans; [9]): 1 #/10 Mice
Death, days post-inoculum 4-6 (Candida albicans; [9]): 1 #/10 Mice
Death, days post-inoculum 7-9 (Candida albicans; [9]): 0 #/10 Mice
Response Inc. % (Candida albicans; [9]): 50%
Survivor No. (Candida albicans; [9]): 7
in vivo immunorestoration activity (Candida albicans; summary, no dose stated): very strong
Minimum inhibitory concentration (MIC) (Pseudomonas aeruginosa): > 0.5%
antiviral activity [4]: no activity
Minimum inhibitory concentration (MIC) (Escherichia coli): > 0.5%
Swelling Inh. % ([5]; IP 0.1 × 5 mg/kg): 16%
Swelling (R -L) ([5]; IP 0.1 × 5 mg/kg): 19.6 +/- 2.9 × 0.01 mm
ear thickness, Left Ear (No Oxa.) ([5]; IP 0.1 × 5 mg/kg): 21.0 +/- 0.8 × 0.01 mm
ear thickness, Right Ear (24 hrs Oxa.) ([5]; IP 0.1 × 5 mg/kg): 40.6 +/- 3.0 × 0.01 mm
Swelling Inh. % ([5]; IP 1 × 5 mg/kg): 22%
Swelling (R -L) ([5]; IP 1 × 5 mg/kg): 20.2 +/- 1.7 × 0.01 mm
ear thickness, Left Ear (No Oxa.) ([5]; IP 1 × 5 mg/kg): 21.0 +/- 0.5 × 0.01 mm
ear thickness, Right Ear (24 hrs Oxa.) ([5]; IP 1 × 5 mg/kg): 41.2 +/- 1.8 × 0.01 mm
Swelling Inh. % ([5]; IP 10 × 5 mg/kg): 19%
Swelling (R -L) ([5]; IP 10 × 5 mg/kg): 20.8 +/- 1.2 × 0.01 mm
ear thickness, Left Ear (No Oxa.) ([5]; IP 10 × 5 mg/kg): 20.8 +/- 0.7 × 0.01 mm
ear thickness, Right Ear (24 hrs Oxa.) ([5]; IP 10 × 5 mg/kg): 41.6 +/- 1.2 × 0.01 mm
Swelling Inh. % ([5]; IP 100 × 5 mg/kg): 26%
Swelling (R -L) ([5]; IP 100 × 5 mg/kg): 19.2 +/- 0.6 × 0.01 mm
ear thickness, Left Ear (No Oxa.) ([5]; IP 100 × 5 mg/kg): 19.0 +/- 0.9 × 0.01 mm
concentration at which the enzyme was inhibited (alpha-amylase): 1 mg/mL
Lymphocyts (blood count in mouse): 53.40 +/- 11.14
lymphocytes (blood count in mouse): 56.50 +/- 12.02
nRBC (blood count in mouse): 0
change in lymphocytes (blood count in mouse; iv, 7.5 mg/kg): decreased
change in neutrophils (blood count in mouse; iv, 7.5 mg/kg): significantly increased
micronuclei numbers (CHO cells): increased compared to the parallel control specimens
number of micronuclei inside certain binuclear cells (CHO cells): up to 4
concentration at which the enzyme was inhibited (acetylcholinesterase): 1 mg/mL
